# DBAASP
# Values joined by “and” are separate entries in the source; they are usually repeats but may differ in a detail not shown here. Equal entries are not always repeated.
# Assays:
# Test in all cases: ≥ marks a high value that may be exact or a test limit, other limits are often not marked, values filed in µg/mL are converted to µM
# [1] = tested on: Bacillus subtilis
# [2] = tested on: Escherichia coli
# [3] = tested on: Klebsiella pneumoniae
# [4] = tested on: Micrococcus luteus
# [5] = tested on: Proteus mirabilis
# [6] = tested on: Pseudomonas aeruginosa
# [7] = tested on: Salmonella typhimurium
# [8] = tested on: Shigella dysenteriae
# [9] = tested on: Staphylococcus aureus
# [10] = tested on: Staphylococcus epidermidis
# [11] = tested on: Bacillus subtilis ATCC 6633
# [12] = tested on: Candida albicans ATCC 20032
# [13] = tested on: Escherichia coli ATCC 25922
# [14] = tested on: Staphylococcus aureus ATCC 25923
# [15] = tested on: Bacillus subtilis CMCC 63501
# [16] = tested on: Escherichia coli UB1005
# [17] = tested on: Pseudomonas aeruginosa ATCC 27853
# [18] = tested on: Salmonella enterica subsp. enterica serovar Typhimurium ATCC 14028
# [19] = tested on: Salmonella typhimurium ATCC 7731
# [20] = tested on: Staphylococcus aureus ATCC 29213
# [21] = tested on: Staphylococcus epidermidis ATCC 12228
# [22] = tested on: Clavibacter michiganensis subsp. michiganensis DSM 46294
# [23] = tested on: Pectobacterium carotovorum subsp. carotovorum DSM 30168
# [24] = tested on: Pseudomonas corrugata DSM 7228
# [25] = tested on: Pseudomonas syringae pv. syringae DSM 10604
# [26] = tested on: Pseudomonas syringae pv. tomato DC3000
# [27] = tested on: Xanthomonas vesicatoria DSM 50861
# [28] = tested on: Salmonella enterica subsp. enterica serovar Pullorum C79-13
# [29] = tested on: Staphylococcus aureus ATCC 43300
compound,measurement,setting,value
CC(C)C[C@H](NC(=O)[C@H](C)N)C(=O)N[C@@H](Cc1ccccc1)C(=O)N[C@@H](CCCCN)C(=O)N[C@H](C(=O)N[C@@H](C)C(=O)N[C@@H](CO)C(=O)N[C@@H](CCCCN)C(=O)N[C@H](C(=O)N[C@@H](CC(C)C)C(=O)N1CCC[C@H]1C(=O)N[C@@H](CO)C(=O)N[C@H](C(=O)O)C(C)C)C(C)C)C(C)C [ALFKVASKVLPSV],MIC,[1],≥ 147 µM
same,MIC,[2],> 147 µM
same,MIC,[3],> 147 µM
same,MIC,[4],≥ 147 µM
same,MIC,[5],≥ 147 µM
same,MIC,[6],> 147 µM
same,MIC,[7],≥ 147 µM
same,MIC,[8],≥ 147 µM
same,MIC,[9],> 147 µM
same,MIC,[10],≥ 147 µM
CC(C)C[C@@H]1NC(=O)[C@H](CO)NC(=O)[C@H](Cc2ccc(O)cc2)NC(=O)[C@H](CCC(=O)O)NC(=O)[C@H](Cc2ccccc2)NC(=O)[C@H](C)NC(=O)[C@H](Cc2ccccc2)NC(=O)[C@@H]2CSSC[C@@H](C(=O)N[C@H](C(=O)N3CCC[C@H]3C(=O)N[C@@H](CC(N)=O)C(=O)N[C@H](C(=O)N[C@@H](Cc3ccccc3)C(=O)O)[C@@H](C)O)C(C)C)NC(=O)[C@@H]3CSSC[C@H](NC(=O)CNC(=O)[C@H](Cc4c[nH]c5ccccc45)NC(=O)[C@@H](NC(=O)[C@H](C)NC(=O)[C@@H](N)Cc4ccccc4)C(C)C)C(=O)N[C@@H](C)C(=O)N[C@@H](CC(=O)O)C(=O)N[C@@H](Cc4ccc(O)cc4)C(=O)N[C@@H](CCCN=C(N)N)C(=O)NCC(=O)N[C@@H](Cc4ccc(O)cc4)C(=O)N[C@@H](CSSC[C@H](NC(=O)CNC(=O)[C@H](CCCCN)NC(=O)[C@@H]4CCCN4C(=O)CNC1=O)C(=O)N[C@@H]([C@@H](C)O)C(=O)N[C@@H](CCC(=O)O)C(=O)NCC(=O)N[C@@H](Cc1ccc(O)cc1)C(=O)N[C@@H](C(C)C)C(=O)N3)C(=O)N[C@@H](CCCN=C(N)N)C(=O)N[C@@H](C)C(=O)N[C@@H](C)C(=O)N2 [FAVWGCADYRGYCRAACFAFEYSLGPKGCTEGYVCCVPNTF],MIC,[11],29.8 µM
same,MIC,[12],≥ 44.2 µM
same,MIC,[13],35.3 µM
same,MIC,[14],14.4 µM
CC(C)C[C@H](NC(=O)[C@@H](NC(=O)[C@H](CCCCN)NC(=O)[C@H](CC(C)C)NC(=O)[C@H](C)NC(=O)[C@@H](NC(=O)[C@H](CCCCN)NC(=O)[C@H](Cc1ccccc1)NC(=O)[C@H](CC(C)C)NC(=O)[C@H](C)NC(=O)[C@H](CCCCN)NC(=O)[C@H](CC(C)C)NC(=O)[C@@H](N)Cc1ccccc1)C(C)C)C(C)C)C(=O)O [FLKALFKVALKVL],MIC,[1],16.8 µM
same,MIC,[2],33.6 µM
same,MIC,[3],67.1 µM
same,MIC,[4],4.23 µM
same,MIC,[5],≥ 134 µM
same,MIC,[6],> 134 µM
same,MIC,[7],≥ 134 µM
same,MIC,[8],≥ 33.6 µM
same,MIC,[9],2.08 µM
same,MIC,[10],2.08 µM
CC[C@H](C)[C@H](NC(=O)CN)C(=O)NCC(=O)NCC(=O)N[C@@H](C)C(=O)N[C@@H](CC(C)C)C(=O)N[C@@H](CC(C)C)C(=O)N[C@@H](CO)C(=O)N[C@H](C(=O)NCC(=O)N[C@@H](CCCCN)C(=O)N[C@@H](CC(C)C)C(=O)N[C@@H](C)C(=O)N[C@@H](CC(C)C)C(=O)N[C@@H](CCCCN)C(=O)NCC(=O)N[C@@H](CC(C)C)C(=O)N[C@@H](C)C(=O)N[C@@H](CC(N)=O)C(=O)N[C@H](C(=O)N[C@@H](CC(C)C)C(=O)N[C@@H](C)C(=O)N[C@@H](CC(=O)O)C(=O)N[C@@H](CCCCN)C(=O)N[C@@H](Cc1ccccc1)C(=O)N[C@@H](C)C(=O)N[C@@H](CC(N)=O)C(N)=O)C(C)C)C(C)C [GIGGALLSVGKLALKGLANVLADKFAN],MIC,[11],14.4 µM
same,MIC,[12],14.4 µM
same,MIC,[13],> 38.3 µM
same,MIC,[14],1.8 µM
CC[C@H](C)[C@H](N)C(=O)N[C@@H](CC(C)C)C(=O)NCC(=O)N1CCC[C@H]1C(=O)N[C@H](C(=O)N[C@H](C(=O)N[C@@H](CO)C(=O)N[C@H](C(=O)N[C@H](C(=O)NCC(=O)N[C@@H](CC(N)=O)C(=O)N[C@H](C(=O)N[C@@H](CC(C)C)C(=O)NCC(=O)NCC(=O)N[C@@H](CC(C)C)C(=O)N[C@@H](CC(C)C)C(=O)N[C@@H](CCCCN)C(=O)N[C@@H](CC(N)=O)C(=O)N[C@@H](CC(C)C)C(N)=O)C(C)C)[C@@H](C)CC)[C@@H](C)O)[C@@H](C)CC)C(C)C [ILGPVISTIGNVLGGLLKNL],MIC,[11],≥ 50.2 µM
same,MIC,[12],≥ 50.2 µM
same,MIC,[13],> 50.2 µM
same,MIC,[14],> 50.2 µM
CC[C@H](C)[C@H](N)C(=O)N[C@@H](CO)C(=O)NCC(=O)N1CCC[C@H]1C(=O)N[C@H](C(=O)N[C@@H](CC(C)C)C(=O)NCC(=O)N[C@@H](CC(C)C)C(=O)N[C@H](C(=O)NCC(=O)N[C@@H](CC(N)=O)C(=O)N[C@@H](C)C(=O)N[C@@H](CC(C)C)C(=O)NCC(=O)NCC(=O)N[C@@H](CC(C)C)C(=O)N[C@H](C(=O)N[C@@H](CCCCN)C(=O)N[C@@H](CCCCN)C(=O)N[C@H](C(N)=O)[C@@H](C)CC)[C@@H](C)CC)C(C)C)C(C)C [ISGPVLGLVGNALGGLIKKI],MIC,[11],≥ 52.1 µM
same,MIC,[12],≥ 52.1 µM
same,MIC,[13],> 52.1 µM
same,MIC,[14],> 52.1 µM
CC[C@H](C)[C@H](NC(=O)CNC(=O)[C@H](C)NC(=O)[C@H](C)NC(=O)[C@@H](NC(=O)[C@@H](NC(=O)[C@H](CC(N)=O)NC(=O)[C@@H](NC(=O)[C@H](C)NC(=O)[C@@H](NC(=O)[C@@H]1CCCN1C(=O)[C@@H](NC(=O)[C@H](CC(C)C)NC(=O)[C@@H]1CCCN1C(=O)[C@H](Cc1c[nH]c2ccccc12)NC(=O)[C@H](Cc1ccccc1)NC(=O)[C@H](CCCN=C(N)N)NC(=O)[C@@H](N)CCCCN)C(C)C)C(C)C)[C@@H](C)CC)[C@@H](C)O)C(C)C)C(=O)N[C@@H](CC(N)=O)C(=O)N[C@@H](CC(C)C)C(=O)N[C@@H](Cc1ccc(O)cc1)C(=O)N[C@@H](CCCCN)C(=O)N[C@@H](C)C(=O)N[C@H](C(=O)N[C@@H](CCCN=C(N)N)C(=O)N[C@@H](CCCN=C(N)N)C(=O)N[C@@H](CCCCN)C(N)=O)[C@@H](C)CC [KRFWPLVPVAINTVAAGINLYKAIRRK],MIC,[15],2 µM
same,MIC,[13],2 µM and 4 µM
same,MIC,[16],4 µM
same,MIC,[17],4 µM and > 2 µM
same,MIC,[18],4 µM
same,MIC,[19],4 µM
same,MIC,[20],4 µM
same,MIC,[21],2 µM
CC[C@H](C)[C@H](NC(=O)[C@H](CC(C)C)NC(=O)[C@H](CCCN=C(N)N)NC(=O)[C@H](CCCCN)NC(=O)[C@H](CC(C)C)NC(=O)[C@H](CC(C)C)NC(=O)[C@H](CCCCN)NC(=O)[C@H](CCCCN)NC(=O)[C@H](CCCN=C(N)N)NC(=O)[C@H](CCCCN)NC(=O)[C@H](CCCCN)NC(=O)[C@@H](N)CCCN=C(N)N)C(N)=O [RKKRKKLLKRLI],MIC,[22],3.16 µM
same,MIC,[23],6.33 µM
same,MIC,[24],0.316 µM
same,MIC,[25],0.158 µM
same,MIC,[26],6.33 µM
same,MIC,[27],6.33 µM
CC(C)C[C@H](NC(=O)[C@H](CCCCN)NC(=O)[C@H](CCCCN)NC(=O)[C@H](C)NC(=O)[C@@H](NC(=O)[C@H](CCCCN)NC(=O)[C@H](CO)NC(=O)[C@H](CC(C)C)NC(=O)[C@@H](N)Cc1c[nH]c2ccccc12)[C@@H](C)O)C(N)=O [WLSKTAKKL],MIC,[15],≥ 128 µM
same,MIC,[13],> 128 µM
same,MIC,[16],≥ 128 µM
same,MIC,[17],> 128 µM
same,MIC,[28],≥ 128 µM
same,MIC,[19],≥ 128 µM
same,MIC,[20],> 128 µM
same,MIC,[29],> 128 µM
same,MIC,[21],> 128 µM
